Test results reported in patent US20210340524A1, “METHODS FOR IDENTIFYING CHIMERIC ANTIGEN RECEPTOR-TARGETING LIGANDS AND USES THEREOF” (Massachusetts Institute of Technology, priority 2020, published 2021).
Where a SMILES comes first, the peptide text is derived from it. Bridges are numbered along the chain shown (N, C = ends). Where no end group is shown, it is not given here. The star is where a group is joined. Biotin = O=C1N[C@H]2[C@H](CS[C@H]2CCCCC(=O)*)N1

Tests used:
[1] = Micelle stability of lipid-oligonucleotide conjugates in the presence of serum (FBS); assay type: physicochemical; conditions: for micelle stability on increasing number of guanines: in the presence of serum
Source text: In certain embodiments, the linker is one or more guanines, for example between 1-10 guanines. It has been discovered that altering the number of guanines between a cargo such as a CpG oligonucleotide, and a lipid tail controls micelle stability in the presence of serum proteins. Therefore, the number of guanines in the linker can be selected based on the desired affinity of the conjugate for serum proteins such as albumin. When the cargo is a CpG immunostimulatory oligonucleotide and the lipid tail is a diacyl lipid, the number of guanines affects the ability of micelles formed in aqueous solution to dissociate in the presence of serum: 20% of the non-stabilized micelles (lipo-G0T10-CG) (SEQ ID NO: 138) were intact, while the remaining 80% were disrupted and bonded with FBS components.

[2] = system: FMC63 CAR T cells; test: In vivo proliferation of FMC63 CAR T cells in inguinal lymph nodes (cell trace violet dilution); conditions: mice, s.c. tail base, 10 ug monovalent or 20 ug bivalent + 25 μg cyclic-di-GMP; inguinal LNs 48 hours post-vaccination
Experimental: CD45.1^+ donor FMC63 CAR T cells were prepared as described in Example 3 and labeled with cell trace violet according to manufacturer's protocol. 2×10^6 CAR T cells were administered into CD45.2^+ recipient mice via tail vein injection on Day 0. The following day, recipient mice were vaccinated by subcutaneous injection at the tail base with the following vaccine formulation: […]
(i) 10 ug of monovalent amph-mimotope (Amph-K-A1 or Amph-K-C2)+25 μg of cyclic-di-GMP in 1×PBS; or
(ii) 20 ug of amph-Bi-F12-mimotope (PEG4 or PEG8)+25 μg of cyclic-di-GMP in 1×PBS.
The volume of the formulation was 100 μL total, and the mice were administered 50 μL per each site of the tail base. Control mice received no vaccination. At 48 hours post-vaccination, recipient mice were euthanized and inguinal LNs were isolated for FACS analysis of CAR T proliferation.

[3] = target: FMC63 scFv; test: Yeast clone binding to biotinylated FMC63 scFv monomer, Kd by FACS; design: species or system murine; conditions: yeast clones
FMC63 scFv, sequence (as listed by the source): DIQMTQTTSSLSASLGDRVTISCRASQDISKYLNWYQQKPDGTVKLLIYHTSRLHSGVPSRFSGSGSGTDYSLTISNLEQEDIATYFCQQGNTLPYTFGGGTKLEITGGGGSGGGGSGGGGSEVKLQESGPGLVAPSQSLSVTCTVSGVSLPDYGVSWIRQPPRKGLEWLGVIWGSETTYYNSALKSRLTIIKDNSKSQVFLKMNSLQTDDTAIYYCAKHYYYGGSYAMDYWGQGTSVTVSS
Experimental: Identifying specific mimotope clones of varying affinities will provide flexibility in treatments. In order to validate specific sequences, clones were isolated and measured for their affinity to FMC63. Specifically, a subset of mimotope clones were selected from the fixed library sequence described in Example 5. […] Given the FDA-approved CAR is an scFV derived from the parental IgG, mimotope binding to FMC63-scFv monomer was tested using biotinylated FMC63 scFV to measure Kd by FACS (FIG. 10B). […] This screen positively identified mimotope clones with varying affinities to FMC63 which may be used for a tailored vaccine approach.

[4] = target: FMC63 IgG; test: ELISA of N-terminally biotinylated F12 variants on streptavidin plate, binding to FMC63 IgG; design: species or system murine; conditions: biotinylated peptides, read-out: Kd (nM), FMC63 binding affinity of F12 variants with N-terminal flanking residues
Source text: It was further evaluated if addition of flanking residues to the terminus of a FMC63-binding mimotope would increase its binding affinity to FMC63, e.g., by increasing the mimotope surface area available for engaging in protein-protein interactions with FMC63. […] Additional Ser-Gly residues (between 3 and 15 additional residues) were included to further extend the N-terminal flanking region.

[5] = system: FMC63 IgG; test: Mimotope binding to FMC63 after DTT treatment of yeast, flow cytometry; design: species or system murine; conditions: DTT 0.01-10 mM, 30 minutes, room temperature
Experimental: To determine the formation of an intra-peptidyl disulfide bridge formed by the two Cys residues, mimotope expressing yeast were treated in reducing conditions and binding of the mimotope to FMC63 IgG was measured. […] Similarly, control cells expressing Aga2p (connected to the yeast surface by disulfide bridge) were treated with DTT. Following treatment, cells were labelled with biotinylated Aga2p or FMC63 and binding was measured by flow cytometry. At mild reducing conditions, Aga2p was maintained on the yeast surface while mimotope binding to FMC63 was abolished (FIG. 6). The inhibition of mimotope binding to FMC63 following treatment with a reducing agent reaffirms the formation of the disulfide bond and its importance for binding.
Target sequence in this assay (as listed by the source): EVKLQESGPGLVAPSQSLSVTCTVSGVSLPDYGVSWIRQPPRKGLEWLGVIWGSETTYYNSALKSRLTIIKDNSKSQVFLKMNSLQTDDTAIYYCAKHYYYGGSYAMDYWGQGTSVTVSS
Target sequence in this assay (as listed by the source): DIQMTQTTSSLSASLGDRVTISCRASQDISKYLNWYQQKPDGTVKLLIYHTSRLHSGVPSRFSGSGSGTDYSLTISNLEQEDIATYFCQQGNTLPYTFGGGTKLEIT

[6] = system: FMC63 scFv; test: Dissociation kinetics of FMC63 scFv from yeast clones, flow cytometry; assay type: binding, murine; conditions: yeast clones labeled with FMC63 scFv, washed, incubated 0-72 hours
Experimental: The dissociation kinetics following binding of the mimotopes to FMC63 were also investigated. Briefly, yeast clone expressing F12 (SEQ ID NO: 18) or K-A1 (SEQ ID NO: 100) were incubated with labeled FMC63 scFv. The yeast were then washed, and incubated for 0-72 hours prior to analysis of the degree of FMC63 scFv labeling by flow cytometry. […] However, the yeast clone expressing K-A1 retained FMC63 even up to 72 hours, indicating slower dissociation kinetics compared to F12.

[7] = system: FMC63 anti-hCD19 CAR-T cells; test: IFNγ secretion of FMC63 CAR-T cells co-cultured with amph-mimotope coated K562 cells (ELISA); assay type: cell-based; conditions: K562 cells coated with 10 μM amph-mimotope; E:T 10:1; 24 hours; compared to amphiphile only control
Experimental: To determine the effect of the CD19 amph-mimotope on chimeric antigen receptor (CAR) T cells, in vitro stimulation of CAR-T cells was assessed after co-culture with antigen presenting cells (APCs) providing the amph-mimotope (FIG. 8A). Specifically, K562 cells were pelleted at 1,000×g for 3 minutes and washed with PBS twice to remove residual protein. The cell pellet was then resuspended at 1×10^6 cells/mL in PBS containing amph-mimotope ([…]; SEQ ID NO: 5) at 10 μM and incubated at 37° C. for 30 minutes. The labeling reaction was stopped by pelleting cells and washing with PBS. To mimic antigen presenting cells in lymph nodes, K562 cells were decorated with amph-mimotope, and then co-cultured at an effector to target (E:T) ratio of 10:1 with FMC63 expressing CAR-T cells (hCD19-CAR; SEQ ID NO: 78) for 24 hours. […]

lipo-G0T10-CG: diacyl lipid tail, G0T10 linker, CpG immunostimulatory oligonucleotide; non-stabilized micelles (DNA TTTTTTTTTTCG; diacyl lipid tail conjugated, backbone chemistry not given here)
percentage of micelles disrupted and bonded with FBS components ([1]; in the presence of serum (FBS)): 80%

Amph-K-C2: monovalent amph-mimotope: mimotope SEQ ID NO: 129 conjugated to DSPE-PEG2k (GGGSASRICPWNCKELPSPPRIFGNR; not fully specified; DSPE-PEG2k conjugate; Synthetic: Mimotope of Amph-K-C2)
proliferation of CAR T cells in vivo measured by cell violet dilution [2]: observed

RICPWSCMVV [Clone B7]
Kd [3]: > 1000 nM

CC[C@H](C)[C@H](NC(=O)[C@H](CCCNC(=N)N)NC(=O)[C@H](CO)NC(=O)[C@H](C)NC(=O)[C@H](CO)NC(=O)CNC(=O)CNC(=O)CNC(=O)CNC(=O)[C@H](CO)NC(=O)CNC(=O)CNC(=O)CCCC[C@@H]1SC[C@@H]2NC(=O)N[C@@H]21)C(=O)N[C@H]1CSSC[C@@H](C(=O)N[C@@H](CCCCN)C(=O)N[C@@H](CCC(=O)O)C(=O)N[C@@H](CC(C)C)C(=O)O)NC(=O)[C@H](CC(N)=O)NC(=O)[C@H](Cc2c[nH]c3ccccc23)NC(=O)[C@@H]2CCCN2C1=O [SEQ ID NO: 97] (Biotin-GGSGGGGSASRICPWNCKEL-OH; disulfide 13-17)
Kd [4]: 0.139 nM

CC[C@H](C)[C@H](NC(=O)[C@H](CCCNC(=N)N)NC(=O)[C@H](CO)NC(=O)[C@H](C)NC(=O)[C@H](CO)NC(=O)CNC(=O)CNC(=O)CNC(=O)CNC(=O)[C@H](CO)NC(=O)CNC(=O)CNC(=O)CNC(=O)CNC(=O)[C@H](CO)NC(=O)CNC(=O)CNC(=O)CNC(=O)CNC(=O)CCCC[C@@H]1SC[C@@H]2NC(=O)N[C@@H]21)C(=O)N[C@H]1CSSC[C@@H](C(=O)N[C@@H](CCCCN)C(=O)N[C@@H](CCC(=O)O)C(=O)N[C@@H](CC(C)C)C(=O)O)NC(=O)[C@H](CC(N)=O)NC(=O)[C@H](Cc2c[nH]c3ccccc23)NC(=O)[C@@H]2CCCN2C1=O [SEQ ID NO: 99] (Biotin-GGGGSGGGGSGGGGSASRICPWNCKEL-OH; disulfide 20-24)
Kd [4]: 0.153 nM

RHCPWNCSLL [Clone A1]
mimotope binding to FMC63 after DTT treatment [5]: abolished

RMCPWSCRPH [Clone A8]
Kd [3]: > 1000 nM

PRKHSGRICPWNCKELDNPPFIFGNR [K-A1]
time of retention of FMC63 scFv labeling after wash [6]: ≥ 72 h

CC[C@H](C)[C@H](NC(=O)[C@H](CCCNC(=N)N)NC(=O)[C@H](CO)NC(=O)[C@H](C)NC(=O)[C@H](CO)NC(=O)CNC(=O)CNC(=O)CNC(=O)CNC(=O)[C@H](CO)NC(=O)CNC(=O)CNC(=O)CNC(=O)CNC(=O)[C@H](CO)NC(=O)CNC(=O)CCCC[C@@H]1SC[C@@H]2NC(=O)N[C@@H]21)C(=O)N[C@H]1CSSC[C@@H](C(=O)N[C@@H](CCCCN)C(=O)N[C@@H](CCC(=O)O)C(=O)N[C@@H](CC(C)C)C(=O)O)NC(=O)[C@H](CC(N)=O)NC(=O)[C@H](Cc2c[nH]c3ccccc23)NC(=O)[C@@H]2CCCN2C1=O [SEQ ID NO: 98] (Biotin-GSGGGGSGGGGSASRICPWNCKEL-OH; disulfide 17-21)
Kd [4]: 0.134 nM

lipo-G10T0-CG: diacyl lipid tail, G10T0 linker, CpG immunostimulatory oligonucleotide (DNA GGGGGGGGGGCG; diacyl lipid tail conjugated, backbone chemistry not given here)
micelle stability on increasing number of guanines [1]: did not further enhance micelle stability

RICPWNCKEL [Clone F12]
time of retention of FMC63 scFv labeling after wash [6]: ≤ 0.5 h

amph-mimotope: DSPE-PEG2000 conjugated onto the N-terminus of synthesized cyclic mimotope RHCPWNCSLL (SEQ ID NO: 5) (disulfide 3-7 (inferred); not fully specified (N-terminus))
activation of CAR-T cells measured by IFNγ secretion [7]: significantly activated

lipo-G8T2-CG: diacyl lipid tail, G8T2 linker, CpG immunostimulatory oligonucleotide (DNA GGGGGGGGTTCG; diacyl lipid tail conjugated, backbone chemistry not given here)
micelle stability on increasing number of guanines [1]: did not further enhance micelle stability
